From ChEMBL document CHEMBL1156829 (Proc Natl Acad Sci U S A, 2008)

Experiments:
[1] = system: Plasmodium falciparum; experiment: NOVARTIS: Inhibition of Plasmodium falciparum 3D7 (drug-susceptible) proliferation in erythrocyte-based infection assay; assay type: functional, organism-based; settings: Plasmodium falciparum, 3D7
[2] = NOVARTIS: Cytotoxicity against human hepatocellular carcinoma cell line (Huh7); assay type: toxicity, cell-based, Huh-7; settings: Huh7 cells (hepatocellular carcinoma cell line)
[3] = system: Plasmodium falciparum; experiment: NOVARTIS: Inhibition of Plasmodium falciparum W2 (drug-resistant) proliferation in erythrocyte-based infection assay; assay type: functional, organism-based; settings: Plasmodium falciparum, W2; read-out: EC50

| Compound | EC50 [1] | CC50 [2] | EC50 [3] |
| --- | --- | --- | --- |
| COc1ccc(C(OCC(=O)N2CCN(Cc3ccccc3)CC2)c2ccccc2)cn1 (stereo unspecified) | 604 nM | > 10000 nM | 434 nM |
| CCNC(=O)/C=C/c1ccc(C(C)(C)C)cc1 | > 1100 nM | > 10000 nM | 441 nM |
| CCc1ccc(C(=O)N(CC(=O)Nc2cc(C(C)(C)C)nn2-c2ccc(Cl)c(Cl)c2)C(C)C)cc1 | 1730 nM | 87800 nM | 3860 nM |
| CCOC(=O)c1cnc2ccc(Cl)cc2c1Nc1ccc(OC)c(OC)c1 | 2670 nM | > 100000 nM | 4430 nM |
| COc1ccccc1N1C(=N)S/C(=C\c2ccc(OCc3ccccc3F)cc2)C1=O | 741 nM | > 10000 nM | 434 nM |
| CC1(C)C=C(C23C=CC(C2)C2C(=C4CC(C)(C)NC(C)(C)C4)C=CC23)CC(C)(C)N1 (stereo unspecified) | 2230 nM | 44700 nM | 1970 nM |
| Cn1cnc2cc(OC3CCN(Cc4ccco4)CC3)ccc21 | 216 nM | > 4340 nM | 192 nM |
| CCCCN(CC)S(=O)(=O)c1cc(Br)cc2c1N(C(C)=O)CC2 | 1560 nM | > 10000 nM | 441 nM |
| CC(C)N1CCC(N2CCN(Cc3ccc4c(c3)Cc3ccccc3-4)CC2CCO)CC1 (stereo unspecified) | 1540 nM | 20500 nM | 905 nM |
| O=[N+]([O-])c1ccc2nc(Nc3ccccc3)c(Nc3ccccc3)nc2c1 | 941 nM | 21700 nM | 955 nM |
| CC(C)CNc1nc(NCCCn2ccnc2)ncc1C(=O)NCc1ccccc1 | 257 nM | > 10000 nM | 443 nM |
| CCOC(=O)C1=C(C)N(c2ccc(OCC)cc2)C(=O)/C1=C\c1ccc(C(C)C)cc1 | > 1280 nM | > 10000 nM | 439 nM |
| CN(C)c1ccc(C2Nc3ccccc3NC3=C2C(=O)CC(C)(C)C3)cc1 (stereo unspecified) | > 12500 nM | > 100000 nM | 4390 nM |
| O=C(Cn1ccc(=NCc2ccccc2)cc1)c1cccc([N+](=O)[O-])c1 | 397 nM | > 10000 nM | 439 nM |
| CCCCc1nc(CN2CCC3(CC2)C(=O)N(CCc2ccccc2)C(=O)N3C)c[nH]1 | > 12000 nM | > 100000 nM | 4380 nM |
| CCCN1CCN(CCCNC(=O)c2ccc3c(c2)sc2nc(-c4ccc(OC)cc4)cn23)CC1 | 2440 nM | > 100000 nM | 4380 nM |
| CN(C)c1ccc(-c2cc(-c3ccccc3)[s+]c(-c3ccccc3)c2)cc1 | 318 nM | 1690 nM | 73.7 nM |
| CCOc1cccc2c1N(C(=O)c1cccc([N+](=O)[O-])c1)C(C)(C)C(=S)C2=C1SC(C(=O)OC)=C(C(=O)OC)S1 | > 1250 nM | > 10000 nM | 444 nM |
| CC(c1nc2ccccc2c(=O)n1-c1ccc(Br)cc1)N1CCN(S(=O)(=O)c2ccc3ccccc3c2)C(C)C1 (stereo unspecified) | > 1250 nM | > 10000 nM | 434 nM |
| OCCNc1nc(Nc2ccc(Cl)cc2)nc2ccccc12 | 321 nM | 11600 nM | 508 nM |
| CN(C)CCNc1ncnc2c1[nH]c1ccc(Cl)cc12 | 632 nM | 20400 nM | 886 nM |
| CCN(CC)CCCC(C)Nc1ccnc2cc3ccccc3cc12 (stereo unspecified) | 90.1 nM | 21300 nM | 933 nM |
| COc1ccc(-c2cc(=O)c3c(O)cc(OC4OC(COC5OC(C)C(O)C(O)C5O)C(O)C(O)C4O)cc3o2)cc1 (stereo unspecified) | > 12500 nM | > 100000 nM | 4420 nM |
| O=[N+]([O-])c1cccc(C=NNc2nc(NN=Cc3cccc([N+](=O)[O-])c3)nc(Nc3cccc4ccccc34)n2)c1 | 509 nM | > 10000 nM | 442 nM |
| CCCCN1Cc2ccc(C(=O)NCCN3CCOCC3)cc2N=C1c1ccc(OC)cc1 | > 10000 nM | > 100000 nM | 4410 nM |
| Cc1nc2c(C#N)c(C)nn2c(C)c1Cc1cccc(F)c1 | 437 nM | > 10000 nM | 444 nM |
| CCOC(=O)c1sc(NC(=O)C(C)Sc2nnc(CNC(=O)c3ccc(OC)cc3)n2-c2ccccc2OC)c(C(=O)OCC)c1C (stereo unspecified) | > 1250 nM | > 10000 nM | 439 nM |
